Reference: patent US20250352490A1, “P-SELECTIN TARGETED NANOPARTICLES AND USES THEREOF” (Ramot at Tel-Aviv University Ltd., priority 2023, published 2025)
Like-named read-outs stand apart in the source and are kept apart here.

Assays:
[1] = system: PD-L1 expression in EMT6 cells; assay: PD-L1 expression in EMT6 cells by flow cytometry; type: cell-based, murine
Method: PD-L1 expression after treatments with talazoparib: EMT6 murine mammary carcinoma cells (obtained from ATCC) were incubated with talazoparib (0.1 nM, 10 nM, and 100 nM) for 24-72 hours and then harvested using FACS buffer (protein levels). 1×10^6 cells were incubated with anti-PD-L1 at 1 μg/ml antibody concentration (Mouse PD-L1/B7-H1 Alexa Fluor® 647-conjugated Antibody; R & D Systems #FAB90781R) or isotype antibody (Rabbit IgG Alexa Fluor®647-conjugated Antibody, R & D Systems #IC1051R) for 1 hour on ice. The cells were washed twice with FACS buffer and the fluorescence intensity was measured by Attune NxT Flow Cytometer and analyzed by Kaluza software. All treatments were compared to the secondary antibody only or to the corresponding isotype control.
PD-L1i blocking activity: In order to assess the PD-L1i small molecule inhibition activity, murine EMT6 cells were seeded in 24-well plate (2×10^4 cells/well). After 24 hours, the medium was replaced with medium containing PD-L1i (SM56; [Acúrcio et al. Journal for ImmunoTherapy of Cancer, 10(7), e004695 (2022)]) for 24-72 hours. The cells were then harvested with FACS buffer, washed and resuspended in FACS buffer. EMT6 cells (1×10^6) were incubated with anti-PD-L1 at 1 μg/ml antibody concentration (Mouse PD-L1/B7-H1 Alexa Fluor®647-conjugated Antibody; R & D Systems #FAB90781R) or isotype antibody (Rabbit IgG Alexa Fluor®647-conjugated Antibody, R & D Systems #IC1051R) for 1 hour on ice. Additionally, to evaluate synergistic activity of PD-L1i with talazoparib, EMT6 cells were treated with the combination of PD-L1i and talazoparib for 48 hours. Later, same antibody and incubation conditions described previously were followed. These experiments were reproduced trice, and the data represent the mean±SD.

[2] = system: EMT6 cells; assay: Proliferation assay, EMT6; type: cell-based, murine; details: Mus musculus
Method: (§1) Human MDA-MB-231 and MDA-MB-436, and murine 4T1 and EMT6 cells were obtained from the ATCC. EMT6, MDA-MB-231 and MDA-MB-436 cells were cultured in DMEM supplemented with 10% FBS, 100 IU/mL penicillin, 100 μg/mL streptomycin, 12.5 U/mL Nystatin, 2 mM L-glutamine. 4T1 cells were cultured in RPMI supplemented with 10% FBS, 100 IU/mL Penicillin, 100 μg/mL Streptomycin, 12.5 U/mL Nystatin, 2 mM L-glutamine, 1 mM sodium pyruvate and 10 mM HEPES Buffer. For MDA-MB-436, MDA-MB-23, 4T1 and EMT6, cells were seeded in 24-well plates (2.5×10^4, 2.5×10^4, 1×10^4, 2×10^3 cells/well, respectively) and incubated for 24 hours. Then, the cultured medium was replaced with a medium containing a serial dilution of talazoparib, talazoparib-loaded NPs or blank NPs (carrier only) for additional 72 hours. Untreated (control) cells were supplemented with fresh medium containing 0.1% DMSO. The cells were counted using a Z1 Coulter Counter (Beckman Coulter). Each treatment was assayed in triplicates, N=3.

[3] = system: PD-L1 RNA in EMT6 cells; assay: PD-L1 mRNA in EMT6 cells by q-Real time PCR; type: cell-based, murine; details: 10 nM, 24-72 hours
Method: q-Real time PCR: Total RNA was isolated from cultured cells using the Direct-zol RNA Miniprep Plus (Zymo Research), according to the manufacturer's instructions. Once isolated, one microgram of RNA was reverse transcribed to cDNA using qScript cDNA synthesis kit (Quantabio, MA, USA). The cDNA was further diluted (1:50 in DNase/RNase-Free Water) for the qPCR. PD-L1 mRNA levels were assessed by SYBR green real-time PCR (StepOne plus; Thermo Fisher Scientific, Waltham, MA, USA) using PerFecTa SYBR Green FastMix ROX (Quanta BioSciences) and the following custom primers: murine PD-L1: forward, 5′-[…]-3′, reverse, 5′-[…]-3′. GAPDH: forward, 5′-ATTCCACCCATGGAATTC-3′, reverse, 5′-[…]-′3.

[4] = system: MDA-MB-231 cells; assay: Proliferation assay, MDA-MB-231; type: cell-based; details: Homo sapiens; MDA-MB-231 (BRCA wild-type), 72 hours
Method: as §1

[5] = system: PD-L1 localizations in EMT6 cells; assay: dSTORM imaging of PD-L1 in EMT6 cells; type: cell-based, murine; details: increasing concentrations, 48 hours
Method: dSTORM imaging of PD-L1 after exposure of EMT6 cells to talazoparib: EMT6 cells were seeded in Ibidi μ-slide 8 well glass bottom chambered coverslips at a density of 5000 cells per well. After 24 hours incubation, cells were treated with Talazoparib for 48 hours ([…]). After 48 hours cells were washed 1× with PBS and fixed using 3.7% formaldehyde solution for 10 minutes at room temperature. After fixation, cells were washed trice with PBS and incubated with 5% BSA solution overnight at 4° C. […] Between 6 and 10 cells were imaged for each condition. dSTORM images were analyzed with the Nikon NIS elements software (version 5.21.01). dSTORM localizations were detected using Gaussian fitting, with a minimum intensity threshold height of 150 for the 647 nm channel. Molecules detected in 5 consecutive frames were considered as a single blinking event, while molecules detected in more than 5 frames were discarded. […] The resulting x-y coordinates of the detected localizations were imported and run through a custom MATLAB scrip to quantify the localization density per cell. Each cell was manually selected by drawing an ROI around the cell contour (detected in the 488 channel). […]

[6] = system: MDA-MB-436 cells; assay: Proliferation assay, MDA-MB-436; type: cell-based; details: Homo sapiens; MDA-MB-436 (BRCA-mutated), 72 hours
Method: as §1

[7] = system: mCherry-labeled EMT6 3D spheroids; assay: mCherry-labeled EMT6 3D spheroids sprouting; type: cell-based, murine; details: Mus musculus, compared to the control
Method: Analysis of mCherry-labeled EMT6 3D spheroids sprouting: 3D spheroid of EMT6 cells (2000 cells/spheroid) were prepared in DMEM medium supplemented with 0.24 w/v % methyl cellulose. The cells were deposited in 25 μL droplets into the inner side of a 20 mm dish and incubated for 48 hours at 37° C. when the plate is facing upside down to allow for spheroid formation. The spheroids were then embedded in Matrigel®, seeded in a 96-well plate, and monitored for cell invasion into the Matrigel®. The 3D spheroids were treated with talazoparib (1 nM, 100 nM and 1 μM) and their sprouting in the Matrigel® was evaluated by measuring the % red area with ImageJ software.

[8] = system: 4T1 cells; assay: Proliferation assay, 4T1; type: cell-based, murine; details: Mus musculus; 4T1 (BRCA wild-type), 72 hours
Method: as §1

[9] = in vivo; cited from earlier work
[10] = system: A375 cells; assay: Proliferation assay (cell count after 72 h), A375; type: cell-based; details: Homo sapiens, read-out: IC50 values
Method: (§2) Cell culture: Murine primary melanoma […].3A cells were obtained from Dartmouth College, Hanover. […].3A cells were cultured in Advanced DMEM growth media supplemented with 5% FBS, 100 μg/mL streptomycin, 100 IU/mL penicillin, 12.5 IU/mL nystatin, and 1% GlutaMAXTM (Gibco, Waltham, MA, USA). Human metastatic melanoma 131/4-5B1 cells were obtained from University of Toronto, Canada, and were cultured in RPMI 1640 medium supplemented with 10% FBS, 100 μg/mL streptomycin, 100 IU/mL penicillin, 12.5 IU/mL nystatin, and 2 mM L-Glutamine (Biological Industries Ltd, Kibbutz Beit Haemek, Israel). Human primary melanoma A375 cells were obtained from ATCC and were cultured in RPMI 1640 medium supplemented with 10% FBS, 100 μg/mL streptomycin, 100 IU/mL penicillin, 12.5 IU/mL nystatin, and 2 mM L-Glutamine. […] Following 72 hours incubation, the cells were counted using a Z1 Coulter Counter (Beckman Coulter). […] Isobolograns and combination index: The interactions between DBF and TRM were evaluated by constructing isobolograms for different drugs ratios and calculating their combination index (CI).^51 First, the inhibitory concentration (IC) values of treatment with DBF, TRM, and their combinations were calculated from the proliferation assays. […]

[11] = system: D4M.3A cells; assay: Proliferation assay (cell count after 72 h), D4M.3A; type: cell-based, murine; details: Mus musculus, read-out: IC50 values
Method: as §2

[12] = system: pERK and ki67 in tumors; details: 30 mg/kg DBF daily, cited from earlier work
[13] = system: melanoma patients; details: cited from earlier work

## O=C1c2ccccc2C(=O)N1CNc1ccc(Oc2ccc(Cl)cc2)cc1 [SM56]
[1]; 10 μM PD-L1i alone, 48 hours
  Reduction of PD-L1 expression compared to untreated cells: about 40%
[1]; 10 μM, 24-72 hours
  PD-L1 expression over time: reduction in PD-L1 expression in a time-dependent manner

## Cn1ncnc1[C@H]1c2n[nH]c(=O)c3cc(F)cc(c23)N[C@@H]1c1ccc(F)cc1 [talazoparib]
[2]; EMT6 (BRCA-mutated), 72 hours
  IC50: 10 nM
[2]; EMT6 proliferation, NPs versus free drug (FIG. 32)
  IC50: 8 nM
[3]
  PD-L1 RNA level: time-dependent increase in PD-L1 expression
[4]
  IC50: 411 nM
[5]
  PD-L1 localizations and protein density (dSTORM): increased number of PD-L1 localizations and higher PD-L1 protein density
[6]
  IC50: 2 nM
[7]
  inhibition at 1 µM: 70%
[8]
  IC50: 58 nM
[1]; 10 nM talazoparib and/or 10 μM PD-L1i, 48 hours
  PD-L1 expression relative to untreated cells: 3 folds
[1]; 10 nM, 24-72 hours
  PD-L1 protein expression: time-dependent increase in PD-L1 expression
[1]; increasing concentrations, 72 hours
  PD-L1 protein expression: induced PD-L1 expression in EMT6 cells in a dose-dependent manner

## CC(=O)Nc1cccc(-n2c(=O)n(C3CC3)c(=O)c3c(Nc4ccc(I)cc4F)n(C)c(=O)c(C)c32)c1 [TRM, trametinib]
[9]
  Steady-state brain to plasma concentration ratio: 0.03±0.01
[10]; A-375, A375, 72 hours
  IC50: 8.5 nM
[11]; D4M.3A, 72 hours
  IC50: 8.6 nM

## CC(C)(C)c1nc(-c2cccc(NS(=O)(=O)c3c(F)cccc3F)c2F)c(-c2ccnc(N)n2)s1 [DBF, dabrafenib]
[9]
  Steady-state brain to plasma concentration ratio: 0.019±0.02
[12]; 6 hours post-final dose
  Inhibition of pERK in tumors: 89%
  Reduction in ki67 in tumors: 28%
[12]
  Duration of pERK reduction in tumors post-dose: up to 18 hours
[10]; A-375, 72 h
  IC50: 13.6 nM
[11]; 72 h
  IC50: 4.9 nM
[13]
  Overall survival (OS): 18.7 months
  Progression-free survival (PFS): 8.8 months
